Assay results published in patent US20080103164A1, “USEFUL COMPOUNDS FOR HPV INFECTION” (priority 2004, published 2008).
pIC50: −log10 of the molar value.

Test system: episomal HPV-16 DNA in W12-20850 cells
Experiment: W-12 cellular assay: episomal HPV-16 DNA quantified by hybrid capture in W12-20850 cells
Assay type: cell-based, HPV16
Conditions: Human papillomavirus 16, 96 h, four days incubation, inhibition of episomal HPV-16 DNA relative to untreated control
Procedure: Compounds of the current invention are believed useful in the treatment and/or prophylaxis of conditions and diseases associated with HPV infection. Activity mediated through HPV was determined using the following W-12 cellular assay. The […] cell line used contains HPV16 DNA and was derived from a low-grade cervical dysplasia tissue by Margaret Stanley and subsequently clonally selected by Paul Lambert (University of Wisconsin). One of these clones, […]-20850, contains 1000 copies of episomal HPV16 DNA and was used in the cell-based assay. […]-20850 cells were routinely cultured with a gamma-irradiated (6000 rads) feeder layer of 3T3 cells. Assays, however, were run in the absence of a 3T3 feeder layer. […]-20850 and 3T3 cells were routinely split when they were sub-confluent. […]-20850 were grown in […] Medium which is constituted of 25% DMEM (Gibco BRL, Cat # 12430-047), 75% F12 Media (Gibco BRL, Cat # 11765-021) and 2.5% FBS. The additives include […] Adenine (Sigma, Cat # A-9795), […] Hydrocortisone (Calbiochem, Cat # 386698), […] Bovine Insulin (Sigma, Cat # 1-1882), 8.4 ng/ml cholera toxin (Fluka, Cat # 26694) and 10 ng/ml EGF (Invitrogen, Cat # 13247-051). 3T3 cells were grown in DMEM containing 10% FBS. Cell lines were incubated at 37° C., in the presence of 5% CO2. For the assay, […]-20850 cells were seeded into a 96 well plate-containing compound. Plates were incubated at 37° C. in the presence of 5% CO2, for four days. On the fourth day, cells were lysed and the amount of episomal HPV-16 DNA was quantified using a non-radioactive hybrid capture technique with HPV-16 specific capture and detection probes. The percent inhibition relative to untreated control cells was then determined. The hybrid capture assay is run in a 96 well plate format. Hybridization plates (Nunc Maxisorb Cat # 450320) were coated with a mixture of capture probe and ReactiBind solution for at least 4 hours and then washed with 0.2×SSC, 0.05% Tween-20 (SSCT) prior to blocking with 150 μl/well of 0.2 N NaOH, 1% Igepal, 10 mg/ml hsDNA for 6-8 hours. The hybridization was carried out by mixing 27 μl of lysed cells with 45 μl of denatured detection probe in 6M guanidine isothiocyanate. To prevent evaporation, 50 μl of mineral oil was added to each well. The plate was then heated to 90° C. for 6.5 minutes and the hybridization continued at 42° C. overnight. Assay plates were washed 6 times with SSC/T. Anti-digoxigenin HRP-conjugated Ab (Boehringer Mannheim 1207733, 1:5000) was incubated in the wells for 30 min at room temperature and washed with PBS/0.05% Tween-20. SuperSignal LBA substrate (Pierce Cat # 37070) was added, and chemiluminescence was measured using Wallac 1420 Victor plate reader.

Compound: Cc1ccc(C2c3[nH]c4ccc(Cl)cc4c3CCN2C(=O)CCc2ccccc2)cc1 (stereo not drawn) [Example 3, 6-Chloro-1-(4-methylphenyl)-2-(3-phenylpropanoyl)-2,3,4,9-tetrahydro-1H-β-carboline]
- pIC50: 7.22

Compound: Cc1ccc(C2c3[nH]c4ccccc4c3CCN2C(=O)C#Cc2ccccc2)cc1 (stereo not drawn) [Example 20, 1-(4-Methylphenyl)-2-(3-phenyl-2-propynoyl)-2,3,4,9-tetrahydro-1H-b-carboline]
- pIC50: 4.59

Compound: c1ccc2c3c([nH]c2c1)C(c1ccc2c(c1)CCO2)N(c1nccc(-n2ccnc2)n1)CC3 (stereo not drawn) [Example 38, 1-(2,3-dihydro-1-benzofuran-5-yl)-2-[4-(1H-imidazol-1-yl)-2-pyrimidinyl]-2,3,4,9-tetrahydro-1H-β-carboline]
- pIC50: 5.52

Compound: COc1ccc(-c2ccnc(N3CCc4c([nH]c5ccccc45)C3c3ccc4c(c3)OCO4)n2)cc1 (stereo not drawn) [Example 32, 1-(1,3-benzodioxol-5-yl)-2-{4-[4-(methyloxy)phenyl]-2-pyrimidinyl}-2,3,4,9-tetrahydro-1H-β-carboline]
- pIC50: 5.70

Compound: c1cncc(-c2ccnc(N3CCc4c([nH]c5ccccc45)C3c3ccc4c(c3)CCO4)n2)c1 (stereo not drawn) [Example 37, 1-(2,3-dihydro-1-benzofuran-5-yl)-2-[4-(3-pyridinyl)-2-pyrimidinyl]-2,3,4,9-tetrahydro-1H-β-carboline]
- pIC50: 5.40

Compound: COc1ccc2c3c([nH]c2c1)C(c1ccc(C)cc1)N(C(=O)CCc1ccccc1)CC3 (stereo not drawn) [Example 27, 7-(Methyloxy)-1-(4-methylphenyl)-2-(3-phenylpropanoyl)-2,3,4,9-tetrahydro-1H-β-carboline]
- pIC50: 5.22
